# Source: US5721207A, “Method for treatment of pain” (Innapharma, Inc., priority 1995, dated 1998)
# What was measured:
# rat [1] = experiment: Rat hot plate analgesiometric test, dose response of single intrathecal elcatonin (Example 8); format: in vivo
# Protocol: The doses tested were 0.2, 0.8, 1.6, 2.4, and 3.6 IU/kg. The desired dose was injected in a volume of 37.5 μL/kg, followed by a catheter wash-out with 10 μL saline, via the intrathecal route.
# A total of 113 adult male rats, of weights of 350 g to 400 g, were used. Intrathecal catheters were surgically implanted as described in Example 4.
# Data were analyzed for statistical significance, and a point estimate (mean and standard deviation) are used to analyze analgesic activity for each dose of the drug for a selected time period. Nonparametric statistics were calculated to address the level of significance of any difference between control and test group.
# rat [2] = experiment: Rat hot plate test, five consecutive daily intrathecal doses of elcatonin (Example 11); format: in vivo; conditions: 4.4 IU/kg intrathecal, five consecutive daily doses (FIG. 7)
# Protocol: Intrathecal catheters were implanted in rats as described hereinabove, and a 7-10 day period thereafter allowed for full recovery from the surgical procedures.
# Eighteen rats were assigned to three treatment groups of six rats per group. The study is conducted in two treatment phases at one week intervals. Treatment Group I rats receive no treatment. Group II rats receive five consecutive daily intrathecal doses of sterile physiological saline (vehicle control).
# For each treatment, hot plate latencies are determined as described in Example 5 herein above at 0 minutes (predose, baseline), 1 hour, 3 hours, and 24 hours following injection on the first, third, and fifth study days.
substance,measurement,setting,value
"[Des-Cys^1,ASU^7 ]-Calcitonin, Eel [Elcatonin]",antinociceptive response (statistics),rat [1]; 0.2 IU/kg intrathecal (lowest dose tested),did not produce a statistically significant response
same,Hot Plate Latency (Mean ± SEM),"rat [1]; 0.2 IU/kg intrathecal single, 0 hr (baseline)",10.6 ± 0.8 s
same,Hot Plate Latency (Mean ± SEM),"rat [1]; 0.2 IU/kg intrathecal single, 0.25 hr after administration",13.0 ± 1.1 s
same,Hot Plate Latency (Mean ± SEM),"rat [1]; 0.2 IU/kg intrathecal single, 0.5 hr after administration",12.9 ± 0.7 s
same,Hot Plate Latency (Mean ± SEM),"rat [1]; 0.2 IU/kg intrathecal single, 1 hr after administration",12.7 ± 0.9 s
same,Hot Plate Latency (Mean ± SEM),"rat [1]; 0.2 IU/kg intrathecal single, 3 hr after administration",13.1 ± 0.7 s
same,Hot Plate Latency (Mean ± SEM),"rat [1]; 0.2 IU/kg intrathecal single, 6 hr after administration",12.1 ± 0.5 s
same,Hot Plate Latency (Mean ± SEM),"rat [1]; 0.2 IU/kg intrathecal single, 24 hr after administration",10.8 ± 0.7 s
same,Hot Plate Latency (Mean ± SEM),"rat [1]; 0.8 IU/kg intrathecal single, 0 hr (baseline)",9.8 ± 0.8 s
same,Hot Plate Latency (Mean ± SEM),"rat [1]; 0.8 IU/kg intrathecal single, 0.25 hr after administration",15.1 ± 1.5 s
same,Hot Plate Latency (Mean ± SEM),"rat [1]; 0.8 IU/kg intrathecal single, 0.5 hr after administration",15.0 ± 1.5 s
same,Hot Plate Latency (Mean ± SEM),"rat [1]; 0.8 IU/kg intrathecal single, 1 hr after administration",15.2 ± 1.3 s
same,Hot Plate Latency (Mean ± SEM),"rat [1]; 0.8 IU/kg intrathecal single, 3 hr after administration",20.0 ± 2.8 s
same,Hot Plate Latency (Mean ± SEM),"rat [1]; 0.8 IU/kg intrathecal single, 6 hr after administration",12.3 ± 1.0 s
same,Hot Plate Latency (Mean ± SEM),"rat [1]; 0.8 IU/kg intrathecal single, 24 hr after administration",11.7 ± 1.0 s
same,antinociceptive response (statistics),rat [1]; 0.8 and 1.6 IU/kg intrathecal,significant antinociception
same,Hot Plate Latency (Mean ± SEM),"rat [1]; 1.6 IU/kg intrathecal single, 0 hr (baseline)",9.2 ± 0.5 s
same,Hot Plate Latency (Mean ± SEM),"rat [1]; 1.6 IU/kg intrathecal single, 0.25 hr after administration",16.4 ± 1.2 s
same,Hot Plate Latency (Mean ± SEM),"rat [1]; 1.6 IU/kg intrathecal single, 0.5 hr after administration",16.0 ± 1.0 s
same,Hot Plate Latency (Mean ± SEM),"rat [1]; 1.6 IU/kg intrathecal single, 1 hr after administration",16.4 ± 1.1 s
same,Hot Plate Latency (Mean ± SEM),"rat [1]; 1.6 IU/kg intrathecal single, 3 hr after administration",15.1 ± 0.9 s
same,Hot Plate Latency (Mean ± SEM),"rat [1]; 1.6 IU/kg intrathecal single, 6 hr after administration",13.6 ± 0.8 s
same,Hot Plate Latency (Mean ± SEM),"rat [1]; 1.6 IU/kg intrathecal single, 24 hr after administration",10.9 ± 0.4 s
same,Hot Plate Latency (Mean ± SEM),"rat [1]; 2.4 IU/kg intrathecal single, 0 hr (baseline)",9.0 ± 0.7 s
same,Hot Plate Latency (Mean ± SEM),"rat [1]; 2.4 IU/kg intrathecal single, 0.25 hr after administration",20.0 ± 1.5 s
same,Hot Plate Latency (Mean ± SEM),"rat [1]; 2.4 IU/kg intrathecal single, 0.5 hr after administration",20.1 ± 1.9 s
same,Hot Plate Latency (Mean ± SEM),"rat [1]; 2.4 IU/kg intrathecal single, 1 hr after administration",19.5 ± 1.8 s
same,Hot Plate Latency (Mean ± SEM),"rat [1]; 2.4 IU/kg intrathecal single, 3 hr after administration",21.8 ± 2.1 s
same,Hot Plate Latency (Mean ± SEM),"rat [1]; 2.4 IU/kg intrathecal single, 6 hr after administration",12.6 ± 1.2 s
same,Hot Plate Latency (Mean ± SEM),"rat [1]; 2.4 IU/kg intrathecal single, 24 hr after administration",10.3 ± 1.2 s
same,antinociceptive response (statistics),rat [1]; 2.4 and 3.6 IU/kg intrathecal,strong antinociception
same,Hot Plate Latency (Mean ± SEM),"rat [1]; 3.6 IU/kg intrathecal single, 0 hr (baseline)",10.4 ± 0.9 s
same,Hot Plate Latency (Mean ± SEM),"rat [1]; 3.6 IU/kg intrathecal single, 0.25 hr after administration",19.4 ± 1.6 s
same,Hot Plate Latency (Mean ± SEM),"rat [1]; 3.6 IU/kg intrathecal single, 0.5 hr after administration",21.4 ± 1.8 s
same,Hot Plate Latency (Mean ± SEM),"rat [1]; 3.6 IU/kg intrathecal single, 1 hr after administration",23.5 ± 2.5 s
same,Hot Plate Latency (Mean ± SEM),"rat [1]; 3.6 IU/kg intrathecal single, 3 hr after administration",19.5 ± 1.0 s
same,Hot Plate Latency (Mean ± SEM),"rat [1]; 3.6 IU/kg intrathecal single, 6 hr after administration",15.7 ± 1.3 s
same,Hot Plate Latency (Mean ± SEM),"rat [1]; 3.6 IU/kg intrathecal single, 24 hr after administration",10.2 ± 1.0 s
same,dose relation of hot plate latencies,"rat [1]; intrathecal, 0.2-3.6 IU/kg",increased hot plate latencies in a dose-related fashion
same,onset of antinociception after injection,"rat [1]; intrathecal, 0.2-3.6 IU/kg",≤ 15 min
same,duration of antinociception post-injection,"rat [1]; intrathecal, all doses used",at least 6 hours
same,time of peak antinociception,"rat [1]; intrathecal, all doses used",30 to 60 min
same,hot plate latency by 24 hr post-injection,"rat [1]; intrathecal, most tests",returned to baseline
same,antinociception at 6 hrs after injection,"rat [1]; intrathecal, three higher doses",Significant antinociception was also apparent
same,"antinociceptive results, intrathecal compared with intravenous",rat [1]; rat hot plate,unexpectedly improved antinociceptive results as compared with intravenous injection
same,hot plate latency,rat [2],hot plate latency is increased
same,hot plate latency at 24 hr after each successive injection,rat [2],"greater hot plate latency, and a cumulative analgesic effect over time"
